Target: T1, IRAK4 (Homo sapiens, UniProt Q9NWZ3)
T1 construct: C-terminal HiBiT-tagged Jurkat cells (polyclonal cell line or clone 8D5); endogenous in cells; host or cells: Jurkat cells (polyclonal cell line or clone 8D5), HiBiT-tagged
T1 sequence (Q9NWZ3 1-460): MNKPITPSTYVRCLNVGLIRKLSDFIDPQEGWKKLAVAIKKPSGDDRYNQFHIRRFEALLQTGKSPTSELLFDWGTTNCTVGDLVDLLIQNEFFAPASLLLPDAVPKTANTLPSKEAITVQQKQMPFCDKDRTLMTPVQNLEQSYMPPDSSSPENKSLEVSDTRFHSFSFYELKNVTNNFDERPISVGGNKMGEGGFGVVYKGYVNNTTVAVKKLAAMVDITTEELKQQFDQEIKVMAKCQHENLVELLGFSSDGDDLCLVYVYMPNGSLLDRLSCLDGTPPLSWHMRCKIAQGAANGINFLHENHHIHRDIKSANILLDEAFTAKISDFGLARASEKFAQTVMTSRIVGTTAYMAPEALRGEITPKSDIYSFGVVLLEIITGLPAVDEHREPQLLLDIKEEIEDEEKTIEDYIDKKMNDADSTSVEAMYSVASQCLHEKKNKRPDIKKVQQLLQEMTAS
Experiment: IRAK4 Degradation HiBit Assay
Format: cell-based
Details: C-terminal HiBiT-tagged Jurkat cells, 4 hrs incubation; for DC50: % IRAK4 remaining, four-parameter fit (IC50 used as DC50); for Dmax: from fit of % IRAK4 remaining, read-out: Dmax
Procedure: Compound dilution series (11-point, 3.16-fold dilutions in DMSO, columns 1-11 and 12-22) at 500× the final required concentrations were prepared in Labcyte LDV 384-well plates (cat. no. LP-0200) using a Labcyte Echo 550 Liquid Handler. The 500× solutions ranged from 5 mM to 0.5 μM (final assay concentration range 10 μM to 0.1 nM). Using the Echo, the 500× solutions were stamped into white, 384-well assay plates (Corning, cat. no. 3570) at 60 nL/well. The following assay plate controls were also stamped at 60 nL/well: DMSO in wells E23-P23 (NC, Negative Control, maximum signal), 5 mM solution control compound al in wells A23-D23 and M24-P24 (AC, Active Control, minimum signal/background, 10 μM final assay concentration), control compound al dilution series in wells […] (12-point, 4-fold dilutions). C-terminal HiBiT-tagged Jurkat cells (polyclonal cell line or clone 8D5) were plated at 1×10^6 cells/mL, 30 μL/well (3×10^4 cells/well) in complete RPMI (10% FBS, 1% L-glutamine). Cells were incubated for 4 hrs at 32° C./6% CO2. Compound al has the following structure:
Following incubation, 30 μL of complete Nano-Glo HiBiT Lytic Detection Reagent (Nano-Glo HiBiT Lytic Buffer with 1:50 Nano-Glo HiBiT Lytic Substrate and 1:100 LgBiT Protein; Promega cat. no. N3040) was added. Cells were further incubated for 10 min at room temperature (RT). Luminescence units (LU) were read on an EnVision plate reader (Perkin Elmer, 0.1 sec per well). Percent IRAK4 remaining per sample was calculated as follows: […]
Using Graphpad Prism, % IRAK4 remaining values were plotted as a function of compound concentration. To determine DC50 and Dmax values, resulting curves were fit to the Prism curve-fitting equation “log (inhibitor) vs response-Variable slope (four parameters)” (reported best fit value IC50 used as DC50). Table 1 summarizes the biological data of Compounds of Examples 1-137 and 142-145 obtained from the assays described herein.

SMILES	DC50 [nM]	Dmax [%]
N#Cc1cnn2c(-c3cc(NC4CCOCC4)c(-c4nnc(N5CC6CCC(C5)N6CC5CCN(c6ccc([C@H]7CCC(=O)NC7=O)cn6)CC5)s4)cn3)ccc2c1 (single isomer, unassigned) [Example 112]	33	92
N#Cc1cnn2c(-c3cc(N[C@H]4CCOC4)c(-c4nnc(N5CC6CCC(C5)N6CC5CCN(c6ccc(C7CCC(=O)NC7=O)cn6)CC5)s4)cn3)ccc2c1 (mixture of isomers) [Example 87, 7-[5-(5-{8-[(1-{5-[(3RS)-2,6-dioxopiperidin-3-yl]pyridin-2-yl}piperidin-4-yl)methyl]-3,8-diazabicyclo[3.2.1]octan-3-yl}-1,3,4-thiadiazol-2-yl)-4-{[(3S)-oxolan-3-yl]amino}pyridin-2-yl]pyrrolo[1,2-b]pyridazine-3-carbonitrile]	47	61
CCNc1cc(-c2ccc3cc(C#N)cnn23)ncc1-c1nnc(N2CCN(CC3CCN(c4ccc(C5CCC(=O)NC5=O)cn4)CC3)CC2)o1 (racemic) [Example 69, rac-7-[5-(5-{4-[(1-{5-[(3R)-2,6-dioxopiperidin-3-yl]pyridin-2-yl}piperidin-4-yl)methyl]piperazin-1-yl}-1,3,4-oxadiazol-2-yl)-4-(ethylamino)pyridin-2-yl]pyrrolo[1,2-b]pyridazine-3-carbonitrile]	1000	84
N#Cc1cnn2c(-c3cc(NC4CCOCC4)c(-c4nnc(N5CCN(CC6CCN(c7ccc([C@@H]8CCC(=O)NC8=O)cn7)CC6)CC5)s4)cn3)ccc2c1 (single isomer, unassigned) [Example 31]	160	53
CCNc1cc(-c2ccc3cc(C#N)cnn23)ncc1-c1nnc(N2CC3CCC(C2)N3CC2CCN(c3ccc([C@H]4CCC(=O)NC4=O)cc3)CC2)s1 (racemic) [Example 102, rac-7-[5-(5-{8-[(1-{4-[(3R)-2,6-dioxopiperidin-3-yl]phenyl}piperidin-4-yl)methyl]-3,8-diazabicyclo[3.2.1]octan-3-yl}-1,3,4-thiadiazol-2-yl)-4-(ethylamino)pyridin-2-yl]pyrrolo[1,2-b]pyridazine-3-carbonitrile]	42	107
N#Cc1cnn2c(-c3cc(N[C@@H]4CCOC4)c(-c4nnc(N5CC6CCC(C5)N6CC5CCN(c6ccc(C7CCC(=O)NC7=O)cc6)CC5)s4)cn3)ccc2c1 (mixture of isomers) [Example 98, 7-[5-(5-{8-[(1-{4-[(3RS)-2,6-dioxopiperidin-3-yl]phenyl}piperidin-4-yl)methyl]-3,8-diazabicyclo[3.2.1]octan-3-yl}-1,3,4-thiadiazol-2-yl)-4-{[(3R)-oxolan-3-yl]amino}pyridin-2-yl]pyrrolo[1,2-b]pyridazine-3-carbonitrile]	16	105
CCNc1cc(-c2ccc3cc(C#N)cnn23)ncc1-c1nnc(N2CC3CCC(C2)N3CC2CCN(c3ccc([C@H]4CCC(=O)NC4=O)cn3)CC2)s1 (racemic) [Example 89, rac-7-[5-(5-{8-[(1-{5-[(3R)-2,6-dioxopiperidin-3-yl]pyridin-2-yl}piperidin-4-yl)methyl]-3,8-diazabicyclo[3.2.1]octan-3-yl}-1,3,4-thiadiazol-2-yl)-4-(ethylamino)pyridin-2-yl]pyrrolo[1,2-b]pyridazine-3-carbonitrile]	24	112
N#Cc1cnn2c(-c3cc(N[C@@H]4CCOC4)c(-c4nnc(N5CC6CCC(C5)N6CC5CCN(c6ccc(C7CCC(=O)NC7=O)cn6)CC5)s4)cn3)ccc2c1 (mixture of isomers) [Example 94, 7-[5-(5-{8-[(1-{5-[(3RS)-2,6-dioxopiperidin-3-yl]pyridin-2-yl}piperidin-4-yl)methyl]-3,8-diazabicyclo[3.2.1]octan-3-yl}-1,3,4-thiadiazol-2-yl)-4-{[(3R)-oxolan-3-yl]amino}pyridin-2-yl]pyrrolo[1,2-b]pyridazine-3-carbonitrile]	10	114
C[C@H](C#N)Nc1cc(-c2ccc3cc(C#N)cnn23)ncc1-c1nnc(N2CC3CCC(C2)N3CC2CCN(c3ccc([C@H]4CCC(=O)NC4=O)cn3)CC2)s1 (single isomer, unassigned) [Example 142]	12	96

Next, values leading:

DC50 [nM]	Dmax [%]	SMILES
16	115	N#Cc1cnn2c(-c3cc(N[C@H]4CCOC4)c(-c4nnc(N5CCN(CC6CCN(c7ccc([C@H]8CCC(=O)NC8=O)cn7)CC6)CC5)s4)cn3)ccc2c1 (mixture of isomers) [Example 93, 7-[5-(5-{4-[(1-{5-[(3RS)-2,6-dioxopiperidin-3-yl]pyridin-2-yl}piperidin-4-yl)methyl]piperazin-1-yl}-1,3,4-thiadiazol-2-yl)-4-{[(3R)-oxolan-3-yl]amino}pyridin-2-yl]pyrrolo[1,2-b]pyridazine-3-carbonitrile]
12	101	CNc1cc(-c2ccc3cc(C#N)cnn23)ncc1-c1nnc(C23CCC(C(=O)N4CCN(c5ccc(C6CCC(=O)NC6=O)cn5)CC4)(CC2)CC3)s1 (racemic) [Example 27, rac-7-(5-{5-[4-(4-{5-[(3R)-2,6-dioxopiperidin-3-yl]pyridin-2-yl}piperazine-1-carbonyl)bicyclo[2.2.2]octan-1-yl]-1,3,4-thiadiazol-2-yl}-4-(methylamino)pyridin-2-yl)pyrrolo[1,2-b]pyridazine-3-carbonitrile]
13	111	N#CCNc1cc(-c2ccc3cc(C#N)cnn23)ncc1-c1nnc(N2CCN(CC3CCN(c4ccc([C@@H]5CCC(=O)NC5=O)cn4)CC3)CC2)s1 (single isomer, unassigned) [Example 132]
16	86	N#Cc1cnn2c(-c3cc(NC4CCOCC4)c(-c4nnc(N5CCN(CC6CCN(c7ccc(N8CCC(=O)NC8=O)cc7)CC6)CC5)s4)cn3)ccc2c1 [Example 60, 7-(5-{5-[4-({1-[4-(2,4-dioxo-1,3-diazinan-1-yl)phenyl]piperidin-4-yl}methyl)piperazin-1-yl]-1,3,4-thiadiazol-2-yl}-4-[(oxan-4-yl)amino]pyridin-2-yl)pyrrolo[1,2-b]pyridazine-3-carbonitrile]
15	107	N#Cc1cnn2c(-c3cc(NC4CCOCC4)c(-c4nnc(N5CCN(CC6CCN(c7ccc(N8CCC(=O)NC8=O)cn7)CC6)CC5)s4)cn3)ccc2c1 [Example 28, 7-(5-{5-[4-({1-[5-(2,4-dioxo-1,3-diazinan-1-yl)pyridin-2-yl]piperidin-4-yl}methyl)piperazin-1-yl]-1,3,4-thiadiazol-2-yl}-4-[(oxan-4-yl)amino]pyridin-2-yl)pyrrolo[1,2-b]pyridazine-3-carbonitrile]
64	114	CNc1cc(-c2ccc3cc(C#N)cnn23)ncc1-c1nnc(N2CCN(C3CCN(CC4CCN(c5ccc(C6CCC(=O)NC6=O)cn5)CC4)CC3)CC2)s1 (racemic) [Example 53, rac-7-{5-[5-(4-{1-[(1-{5-[(3R)-2,6-dioxopiperidin-3-yl]pyridin-2-yl}piperidin-4-yl)methyl]piperidin-4-yl}piperazin-1-yl)-1,3,4-thiadiazol-2-yl]-4-(methylamino)pyridin-2-yl}pyrrolo[1,2-b]pyridazine-3-carbonitrile]
